We go through 4 compounds from patent US20230203095A1, “BIOLOGICAL PEPTIDE FOR TREATING LUNG DISEASES AND APPLICATION THEREOF” (SHANGHAI INSTITUTE OF PHARMACEUTICAL INDUSTRY CO., LTD., priority 2019, published 2023).

Where two headings read alike, the source gives them in different places. Peptide text beside a SMILES is read from it. * marks the point of attachment. X1 = CC(=O)N[C@H]1C(*)O[C@H](CO)[C@@H](O)[C@@H]1O

In data set [1] the test system is OVA-induced asthma model mice. Put plainly: Lung function (inspiratory airway resistance, lung compliance) in OVA-induced allergic asthma model mice. Format: in vivo, BALB/c mice. The following applies: for Inspiratory airway resistance / Lung compliance: 2 mg/kg/day i.p., n=10. How it is done: The second batch: mice were divided into groups, 10 mice in each group, namely: blank control group (normal saline), model group (OVA, dose of 20 ug/mouse), SP peptide group (administered dose of 87.5 µg/kg body weight/ day, 175 µg/kg body weight/day, 350 µg/kg body weight/day, respectively), SIPI-D00 peptide group (administered dose of 87.5 µg/kg body weight/day, 175 µg/kg body weight/day, 350 µg/kg body weight/day), and Dexamethasone group (administered dose of 2 mg/kg body weight/day).
(§1) Mice in the model group, SP peptide group, SIPI-D00 peptide group and dexamethasone group were sensitized by intraperitoneal injection of OVA (20 µg OVA/mice) on day 0, 7, and 14, and challenged by aerosol administration of OVA (once a day for 5 consecutive days) on day 21-25 to construct asthmatic model animals. Mice in the model group were given normal saline on days 21-28; mice in different doses of SP peptide group and SIPI-D00 peptide group were injected subcutaneously with different doses of SP and SIPI-D00 on days 19-28; mice in dexamethasone group were injected intraperitoneally with 2 mg/kg/day dexamethasone on days 21-28. At the same time, 10 mice in the blank control group were fed normally from day 0 to day 28 without any treatment, and were given normal saline as a blank control.
On the 28th day, the mice were anesthetized with tracheal intubation and jugular vein intubation, and the inspiratory airway resistance and lung compliance were measured in each group of animals. Each animal was given fold increasing amounts of methacholine via the jugular vein: 0.025 mg/kg, 0.05 mg/kg, 0.1 mg/kg, 0.2 mg/kg. After each dose was given, the lung compliance curve was recorded continuously for 5 minutes, and the inspiratory airway resistance and lung compliance were calculated. […]
(§2) At the same time, 10 mice in the blank control group were fed normally from day 0 to day 28 without any treatment, and were given normal saline as a blank control.

The test system of data set [2] is OVA-induced asthma model mice. Put plainly: Lung pathology (H&E) of OVA-induced asthma model mice. Format: in vivo, BALB/c mice. As to conditions: positive control group (dexamethasone 2 mg/kg body weight/day), after 28 days. The method, then:
(§3) The first batch: mice were divided into groups, 10 mice in each group, namely: blank control group (normal saline), model group (OVA, 20 ug/mouse), SP peptide group (administered dose of 175 µg/kg body weight/day, 350 µg/kg body weight/day, respectively), SIPI-D00 peptide group (administered dose of 175 µg/kg body weight/day, 350 µg/kg body weight/day), and dexamethasone group (administered dose of 2 mg/kg body weight/day).
as §1
After 28 days, the mouse lung tissue was taken out, fixed in 4% formaldehyde, embedded in paraffin, sectioned, and stained with H&E for pathological observation.
The first batch: mice were divided into groups, 10 mice in each group, namely: blank control group (normal saline), model group (OVA, 20 ug/mice), and SP peptide group (administered dose of 175 µg/kg body weight/day, 350 µg/kg body weight/day, respectively), SIPI-G5 peptide group (administered dose of 175 µg/kg body weight/day, 350 µg/kg body weight/day), dexamethasone group (administered dose of 2 mg/kg body weight/day).
as §2

The test system of another data set is serum IgE. Put plainly: Serum IgE level in OVA-induced allergic asthma model mice. Format: in vivo, BALB/c mice. As to conditions: 2 mg/kg/day intraperitoneal, days 21-28, n=10. How it is done:
as §3
OVA for sensitization was dissolved in sterile PBS solution at a final concentration of 0.2 mg/mL, then an equal volume of aluminum hydroxide adjuvant was added. After shaking for 30 minutes, each mouse was intraperitoneally injected with 0.2 mL (20 µg OVA per mouse).
2% OVA solution was prepared in sterile PBS. The 2% OVA was nebulized with a nebulizer, and the mice were placed in the nebulizer inhalation box for 30 minutes per day.
According to the dosage, SP peptide and SIPI-D00 were dissolved in normal saline respectively, and administered by subcutaneous administration on the back according to the body weight of the animals.
as §1
After 28 days, blood was collected from the inner canthus of the mouse, and the serum was collected, and the IgE level in the serum was measured with an ELISA kit. […]
as §2

The nature of data set [3]: Stability of each 7-peptide compound in rat whole blood. Format: in vitro ADME. The following applies: for stability in whole blood: compared with SP peptide; for recovery: rat whole blood, 37° C., 1000 ng/mL, read-out: Recovery rate (%) M±SD. How it is done: Preparation of the test product: SP and SIPI-D00 were dissolved and diluted with an appropriate amount of 50% acetonitrile water containing 0.1% formic acid to obtain a working solution with a concentration of 200 µg/mL.
• 1) Fresh rat whole blood was added to the EP tube, and shaken gently to mix well; • 2) The EP tube was pre-incubated in a 37° C. water bath for 5 minutes; • 3) Each compound was added to start the reaction and continued to incubate at 37° C.; • 4) 50 µL sample was taken from the sample tube at 0, 2 min, 5 min, 10 min, 30 min, and 60 min, respectively, into the stop tube, 50 µL of ice-cold 7% perchloric acid was added, and shaken to stop the reaction; • 5) Sample was centrifuged at 13000 r/min for 10 min, 75 µL supernatant was aspirated, 60 µL1.25% ammonia water was added and mixed well. After filtered with […] microporous membrane, 20 µL sample was taken for LC-MS/MS analysis.

For `C[C@@H]1C[C@H]2[C@@H]3CCC4=CC(=O)C=C[C@]4(C)[C@@]3(F)[C@@H](O)C[C@]2(C)[C@@]1(O)C(=O)COP(=O)([O-])[O-].[Na+].[Na+]` [Dexamethasone, dexamethasone sodium phosphate, reference compound], the Inspiratory airway resistance in data set [1] (methacholine 0 mg/kg) worked out at 1.00±0.00; in data set [1] (methacholine 0.025 mg/kg), 1.06±0.08; in data set [1] (methacholine 0.05 mg/kg) it was 1.15±0.14; in data set [1] (methacholine 0.1 mg/kg), 1.20±0.21; in data set [1] (methacholine 0.2 mg/kg), 1.23±0.17. The Lung compliance in data set [1] (methacholine 0 mg/kg) came to 1.00±0.00; in data set [1] (methacholine 0.025 mg/kg), 0.97±0.10; in data set [1] (methacholine 0.05 mg/kg), 0.89±0.14; in data set [1] (methacholine 0.1 mg/kg), 0.87±0.22; in data set [1] (methacholine 0.2 mg/kg) it was 0.83±0.14. Moreover, the “inspiratory phase resistance (in words)” value in data set [1] (compared with the model group) is “significantly reduced”. The “lung compliance (in words)” value in data set [1] (compared with the model group) is on record as “significantly increased”. Also, the “lung pathology, H&E” value in data set [2] is “a small amount of inflammatory cell infiltration in the lungs, but the alveolar cavity is seriously damaged”. Moreover, the “Serum IgE level (OD450)” value in the data set with serum IgE came to 0.285 ± 0.041 OD450.

As to `CC(=O)N[C@H]1C(OC[C@H](NC(=O)[C@@H](NC(=O)[C@H](Cc2ccc(O)cc2)NC(=O)[C@@H](NC(=O)[C@H](CCC(N)=O)NC(=O)CN)[C@@H](C)OC2O[C@H](CO)[C@@H](O)[C@H](O)[C@H]2NC(C)=O)[C@@H](C)OC2O[C@H](CO)[C@@H](O)[C@H](O)[C@H]2NC(C)=O)C(=O)NCC(=O)O)O[C@H](CO)[C@@H](O)[C@@H]1O` (some centres unmarked) [SIPI-G4, GQT(Glc)YT(Glc)S(Glc)G] (H-GQT(X1)YT(X1)S(X1)G-OH), in data set [3], the “stability in whole blood” value is on record as “significantly higher than that of SP peptide”. Further, the recovery in data set [3] (incubation time 0 min) came out at 100%; in data set [3] (incubation time 2 min) it was 94.6 ± 8.5%; in data set [3] (incubation time 5 min) it was 87.3 ± 5.6%; in data set [3] (incubation time 10 min) it was 87.2 ± 5.9%; in data set [3] (incubation time 30 min), 77.7 ± 8.1%; in data set [3] (incubation time 60 min), 77.1 ± 2.3%.

For the compound `CC(=O)N[C@H]1C(O[C@H](C)[C@H](NC(=O)[C@H](CCC(N)=O)NC(=O)CN)C(=O)N[C@@H](Cc2ccc(O)cc2)C(=O)N[C@H](C(=O)N[C@@H](CO)C(=O)NCC(=O)O)[C@@H](C)O)O[C@H](CO)[C@@H](O)[C@@H]1O` (some centres unmarked) [SIPI-G6, GQT(Glc)YTSG] (H-GQT(X1)YTSG-OH), the “stability in whole blood” value in data set [3] is “significantly higher than that of SP peptide”. Also, the recovery was found to be 100% in data set [3] (incubation time 0 min); 86.1 ± 1.8% in data set [3] (incubation time 2 min); 81.3 ± 8.3% in data set [3] (incubation time 5 min); 73.4 ± 2.6% in data set [3] (incubation time 10 min); 59.7 ± 8.8% in data set [3] (incubation time 30 min); 51.1 ± 4.9% in data set [3] (incubation time 60 min).

Consider `CC(=O)N[C@H]1C(O[C@H](C)[C@H](NC(=O)[C@H](Cc2ccc(O)cc2)NC(=O)[C@@H](NC(=O)[C@H](CCC(N)=O)NC(=O)CN)[C@@H](C)OC2O[C@H](CO)[C@@H](O)[C@H](O)[C@H]2NC(C)=O)C(=O)N[C@@H](CO)C(=O)NCC(=O)O)O[C@H](CO)[C@@H](O)[C@@H]1O` (some centres unmarked) [SIPI-G8, GQT(Glc)YT(Glc)SG] (H-GQT(X1)YT(X1)SG-OH), for which, in data set [3], the “stability in whole blood” value is “significantly higher than that of SP peptide”. Further, the recovery in data set [3] (incubation time 0 min) was determined as 100%; in data set [3] (incubation time 2 min) it was 83.6 ± 8.1%; in data set [3] (incubation time 5 min), 83.2 ± 6.1%; in data set [3] (incubation time 10 min), 80.7 ± 2.3%; in data set [3] (incubation time 30 min), 71.2 ± 6.3%; in data set [3] (incubation time 60 min), 58.6 ± 4.8%.
